pIC50: −log10 of the molar value.
What follows are compounds tested against h-Sortilin (Homo sapiens (Human), UniProt Q99523) (assay: Neurotensin scintillation proximity assay (SORTILIN Binding Assay [3H]NT SPA)). Conditions: displacement of 5 nM [3H]-neurotensin from 150 nM 6his-Sortilin; average of at least 2 determinations.
Experimental: The exemplified compounds of the invention were tested in a Neurotensin (NTS) scintillation proximity assay (SPA). NTS, which is a 13 amino acid neuropeptide, is a sortilin ligand. The IC50 is a measure of the amount of the compound required to inhibit the binding of NTS to sortilin by 50%. The skilled person will recognise that the lower the IC50 value, the less of the compound needed to achieve the desired effect, and as a result, the chances of undesirable off-target effects are reduced.
Compound affinity was determined by measuring the displacement of [^3H]-neurotensin binding to h-Sortilin in SPA format. Total volume of 40 μl in 50 mM HEPES pH 7.4 assay buffer containing 100 mM NaCl, 2.0 mM CaCl2, 0.1% BSA and 0.1% Tween-20. Compound pre-incubation for 30 minutes at room temperature with 150 nM of 6his-Sortilin before 5 nM [3H]-Neurotensin and Ni chelate imaging beads (Perkin Elmer) were added, after 6 hours the plate was read on a ViewLux with 360 s exposure time. Dose-response evaluation of compounds was performed with 8 concentrations of drugs (covering 3 decades). IC50 values were calculated by nonlinear regression using the sigmoid concentration-response (variable slope) using CDD Vault software. All values reported are average of at least 2 determinations.

Sequence of h-Sortilin (Q99523 78-831): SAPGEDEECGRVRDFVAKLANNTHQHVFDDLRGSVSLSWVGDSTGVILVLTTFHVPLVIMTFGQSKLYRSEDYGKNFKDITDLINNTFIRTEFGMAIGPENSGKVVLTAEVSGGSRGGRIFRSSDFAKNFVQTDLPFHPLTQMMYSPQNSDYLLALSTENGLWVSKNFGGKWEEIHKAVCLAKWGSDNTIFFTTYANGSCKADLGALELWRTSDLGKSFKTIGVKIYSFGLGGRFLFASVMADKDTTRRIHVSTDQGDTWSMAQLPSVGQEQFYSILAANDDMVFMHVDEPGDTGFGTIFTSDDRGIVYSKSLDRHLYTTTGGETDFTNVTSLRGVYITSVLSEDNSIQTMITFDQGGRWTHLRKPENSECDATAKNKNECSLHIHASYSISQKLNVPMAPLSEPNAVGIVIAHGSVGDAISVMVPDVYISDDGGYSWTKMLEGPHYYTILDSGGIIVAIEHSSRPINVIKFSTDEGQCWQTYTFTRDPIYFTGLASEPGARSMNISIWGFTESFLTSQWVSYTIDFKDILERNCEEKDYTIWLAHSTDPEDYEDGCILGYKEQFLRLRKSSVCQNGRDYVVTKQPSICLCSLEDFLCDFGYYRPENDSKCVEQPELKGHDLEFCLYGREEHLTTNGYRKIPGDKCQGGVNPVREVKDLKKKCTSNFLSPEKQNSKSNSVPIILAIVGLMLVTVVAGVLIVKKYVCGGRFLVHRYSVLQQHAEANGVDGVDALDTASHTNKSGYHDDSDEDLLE

| SMILES | pIC50 |
| --- | --- |
| CC(C)(C)CC[C@H](NC(=O)NCc1ccccc1)C(=O)O [Example 1, (2S)-2-[(benzylcarbamoyl)amino]-5,5-dimethylhexanoic acid] | 6.42 |
| CN(Cc1ccccc1)C(=O)N[C@@H](CCC(C)(C)C)C(=O)O [Example 2, (2S)-2-{[benzyl(methyl)carbamoyl]amino}-5,5-dimethylhexanoic acid] | 6.37 |
| CC(C)(C)CC[C@H](NC(=O)OCc1ccccc1)C(=O)O [Example 3, (2S)-2-{[(benzyloxy)carbonyl]amino}-5,5-dimethylhexanoic acid] | 6.25 |
| CC(C)(C)CC[C@H](NC(=O)N1CCOCC1)C(=O)O [Example 4, (2S)-5,5-dimethyl-2-[(morpholine-4-carbonyl)amino]hexanoic acid] | 6.59 |
| CC(C)(C)CC[C@H](NC(=O)N1CCCOCC1)C(=O)O [Example 5, (2S)-5,5-dimethyl-2-[(1,4-oxazepane-4-carbonyl)amino]hexanoic acid] | 6.43 |
